Data set [1] has as its system rat liver microsomes (membrane phospholipid peroxidation). The data set can be described thus: Antiperoxidative activity on rat liver microsomes, cumene hydroperoxide induced peroxidation (MDA formation). As to conditions: 0.5 mM cumene hydroperoxyde, Table 3; for MDA: control 12.8. The class given is biochemical. As to the method: b) 20 mM Hepes-Tris buffer pH=7.4, 0.5 mM cumene hydroperoxide in the presence or in the absence of the compounds to be tested. […] Subsequently the incubation is carried out for 15' at 90° C. in order to allow the development of the coloured adduct.
(§1) A common oxidation product, malonyldialdehyde (MDA), to the two oxidant systems described in (a) and in (b), is measured.
The tested compounds are solubilized in the culture medium up to the desired concentrations (see tables 1-3).
As peroxidant agent 0.5 mM cumene hydroperoxyde is used. As oxidation index the formation of malonyldialdehyde (MDA) is measured (nmoles/mg protein).

Data set [2] has the same test system. Kind of data set: Antiperoxidative activity on rat liver microsomes, NADPH/Fe+2/ADP induced peroxidation (MDA formation). It counts as biochemical. As to the method: Before the final resuspension mitochondria ape washed with 0.125M KCl containing 15 mM Hepes/10 mM tris at pH=7.4. Rat liver microsomes are prepared as described by Ernster and Nordenbrand (Ernster, Nordenbrand K. Methods Enzymol. 1967, 10:574-80). […]
b) 20 mM Hepes-Tris buffer pH=7.4, 0.5 mM cumene hydroperoxide in the presence or in the absence of the compounds to be tested. The trials after incubation are interrupted with 1 ml 35% TCA which 30 mg BHT and 1 ml 1% TBA (thiobarbituric acid) have been added to. Subsequently the incubation is carried out for 15' at 90° C. in order to allow the development of the coloured adduct.
as §1
The formed MDA is evaluated by spectrophotometry at 532 nm and calculated by using a molar extinction coefficient of 156.000 (Buege J. A. and Aust S. D., Methods Enzymol., 52, 302-310, 1978).
The tested compounds are solubilized in the culture medium up to the desired concentrations (see tables 1-3). […]
The antiperoxidase activity is measured as % of inhibition of malonyldialdehyde formation.

The subject of data set [3] is C6 glioma cells. The data set can be described thus: Protection against 5 mM glutamate cytotoxicity in glioma C6 cultures.
Data set [4] has as its system granular cerebellar cells. The data set can be described thus: Protection against 2 mM glutamate cytotoxicity in immature granular cerebellar cell cultures.
A short description of data set [5]: Solubility. It counts as physicochemical. Particulars: for solubility: organic solvent or mixture, in ethanol, read-out: solubility in org. solv.
Data set [6] relates to rat cerebellar granular cells. Kind of data set: Protection against glutamate neurotoxicity in rat cerebellar granular cell cultures. It counts as cell-based. Particulars: glutamate alone, 50 μM; Table 4; control 100; 1440 min. As to the method:
Primary cerebellar granular cell cultures are prepared from 8 days old Sprague-Dawly rats. Neurons are grown on 35 mm plates for 7-8 days. […] Glial cells proliferation is prevented by cytosine arabinose-furanoside.
Cells are washed in Locke solution free from Mg^2+ then replated in the conditionned culture medium.
The solution is diluted serially up to 10, 20 and 50 μM. The compounds at the desired concentrations are added to the cells at 37 ° C.; after 15' 50 μM glutamate free from Mg^2+ is added For 15 minutes at 22 ° C.
The cells are then washed 3 times with Locke solution, then added to the original culture medium and maintained at 37 ° C. in 5 % CO2 for 24 hours.
The cellular survival is measured by using a fluorescence microscope.

Setting [7] is: 10 μM, NADPH/Fe+2/ATP, Table 1-A.
The mark [8] stands for this setting: 10 μM, NADPH/Fe+2/ATP, Table 1-A, control 42.5.
Where [9] appears, read: 20 μM, NADPH/Fe+2/ATP, Table 1-A.
The mark [10] stands for this setting: 20 μM, NADPH/Fe+2/ATP, Table 1-A, control 42.5.
Setting [11] is: Rattus norvegicus, C6 glioma, 24 h, read-out: % Cell survival.
Setting [12] is: Mus musculus, 24 h, read-out: % Cellular survival.

SMILES strings stand for the structures. Read-outs that look alike come from different tables or passages of the source.

With `Cc1c(C)c2c(c(C)c1O)CC(CC(=O)O)O2` (stereo not drawn) [5-hydroxy-4,6,7-trimethyl-2,3-dihydrobenzofuran-2-acetic acid, reference compound], the peroxidation inhibition in data set [1] (20 μM) amounted to 28%; in data set [1] (50 μM) it was 42%; in data set [2] (setting [7]), 0%; in data set [2] (setting [9]) it was 12%. For the same molecule, the MDA is 9.25 nmoles/mg prot in data set [1] (20 μM), 7.5 nmoles/mg prot in data set [1] (50 μM), 44.19 nmoles/mg prot in data set [2] (setting [8]) and 37.3 nmoles/mg prot in data set [2] (setting [10]).
Turning to `Cc1c(C)c2c(c(C)c1O)CCC(C)(C(=O)O)O2` (stereo not drawn) [6-hydroxy-2,5,7,8-tetramethylchroman-2-carboxylic acid, reference compound], in data set [3] (setting [11]), the viability at 10 µM worked out at 7%, the viability at 30 µM was found to be 37% and the viability at 100 µM is 94%. Further, in data set [4] (setting [12]), the viability at 10 µM turned out to be 43%, the viability at 50 µM is 54% and the viability at 100 µM came out at 84%.
For the molecule `CC(=O)OCCNC(=O)C1(C)CCc2c(C)c(OC(C)=O)c(C)c(C)c2O1` (stereo not drawn) [Example 3, 6-acetoxy-2,5,7,8-tetramethyl-chroman-2-(2-acetoxyethyl)-carboxyamide], the “peroxidation inhibition” value in data set [2] (2.5 μM, Table 1-B, third series) was 23.1%; in data set [2] (5 μM, Table 1-B, third series), 41.6%; in data set [2] (10 μM, Table 1-B, third series) it was 53.8%; in data set [2] (20 μM, Table 1-B, third series), 62.1%. Further, the MDA in data set [2] (2.5 μM, Table 1-B, third series (control 37.4)) is 28.8 nmoles/mg/protein; in data set [2] (5 μM, Table 1-B, third series (control 37.4)) it was 21.8 nmoles/mg/protein; in data set [2] (10 μM, Table 1-B, third series (control 37.4)), 17.2 nmoles/mg/protein; in data set [2] (20 μM, Table 1-B, third series (control 37.4)), 14.1 nmoles/mg/protein. Besides, the viability at 1 µM in data set [3] (setting [11]) worked out at 17%; in data set [4] (setting [12]) it was 49%. Also, in data set [3] (setting [11]), the viability at 3 µM was 40%. For the same molecule, the values for the viability at 10 µM in data set [3] (setting [11]) and in data set [4] (setting [12]) were 82% and 60%, respectively. Besides, the solubility in data set [5] is over 10000 µg/mL. The water solubility result in data set [5] was “slightly soluble”. The viability at 30 µM in data set [4] (setting [12]) stood at 77%.
For the molecule `Cc1c(C)c2c(c(C)c1O)CCC(C)(C(=O)NCCCO)O2` (stereo not drawn) [Example 4, N-(6-hydroxy-2,5,7,8-tetramethylchroman-2-carboxyl)-propanolamine], the “peroxidation inhibition” value amounted to 37% in data set [2] (10 μM, Table 1-B, first series); 95.5% in data set [2] (20 μM, Table 1-B, first series); 97.7% in data set [2] (40 μM, Table 1-B, first series); 97.7% in data set [2] (60 μM, Table 1-B, first series); 97.7% in data set [2] (80 μM, Table 1-B, first series); 99.3% in data set [2] (100 μM, Table 1-B, first series). For the same molecule, the MDA in data set [2] (10 μM, Table 1-B, first series (control 46.27)) amounted to 28.96 nmoles/mg/protein; in data set [2] (20 μM, Table 1-B, first series (control 46.27)), 1.61 nmoles/mg/protein; in data set [2] (40 μM, Table 1-B, first series (control 46.27)) it was 1.07 nmoles/mg/protein; in data set [2] (60 μM, Table 1-B, first series (control 46.27)), 1.04 nmoles/mg/protein; in data set [2] (80 μM, Table 1-B, first series (control 46.27)), 1.07 nmoles/mg/protein; in data set [2] (100 μM, Table 1-B, first series (control 46.27)), 0.30 nmoles/mg/protein. The viability at 1 µM in data set [3] (setting [11]) is 10%; in data set [4] (setting [12]) it was 39%. Further, the viability at 3 µM turned out to be 94% in data set [3] (setting [11]) and 60% in data set [4] (setting [12]). Besides, the viability at 10 µM turned out to be 90% in data set [3] (setting [11]) and 77% in data set [4] (setting [12]). Besides, the solubility in data set [5] (DMSO, chloroform) is over 10000 µg/mL. For the same molecule, the water solubility entry in data set [5] is “slightly soluble”.
Take `Cc1c(C)c2c(c(C)c1O)CC(CC(=O)NCCCO)O2` (stereo not drawn) [Example 5, N-[2-(2,3-dihydro-5-hydroxy-4,6,7-trimethylbenzofuran)-acetyl]-propanolamine]: the “peroxidation inhibition” value is on record as 24.0 ± 1.0% in data set [2] (10 μM, Table 1-B, second series); 58.0 ± 7.0% in data set [2] (20 μM, Table 1-B, second series); 94.0 ± 3.0% in data set [2] (40 μM, Table 1-B, second series); 95.0 ± 3.0% in data set [2] (60 μM, Table 1-B, second series); 94.0 ± 3.0% in data set [2] (80 μM, Table 1-B, second series). The MDA is listed as 32.32 ± 0.4 nmoles/mg/protein in data set [2] (10 μM, Table 1-B, second series (control 42.50 ± 2.4)); 17.87 ± 2.9 nmoles/mg/protein in data set [2] (20 μM, Table 1-B, second series (control 42.50 ± 2.4)); 2.57 ± 1.3 nmoles/mg/protein in data set [2] (40 μM, Table 1-B, second series (control 42.50 ± 2.4)); 2.10 ± 1.2 nmoles/mg/protein in data set [2] (60 μM, Table 1-B, second series (control 42.50 ± 2.4)); 2.54 ± 1.3 nmoles/mg/protein in data set [2] (80 μM, Table 1-B, second series (control 42.50 ± 2.4)). For the same molecule, the viability at 1 µM stood at 8% in data set [3] (setting [11]) and 52% in data set [4] (setting [12]). For the same molecule, the viability at 3 µM in data set [3] (setting [11]) was 66%. The viability at 10 µM in data set [3] (setting [11]) amounted to 91%; in data set [4] (setting [12]), 83%. Also, the solubility in data set [5] (DMSO, chloroform) was over 10000 µg/mL. Also, the water solubility result in data set [5] is on record as “slightly soluble”. In addition, in data set [4] (setting [12]), the viability at 30 µM was 86%.
In the case of `N[C@@H](CCC(=O)O)C(=O)O` [Glutamate, reference compound], the cell survival in data set [6] is 3%. Moreover, the cellular degeneration in data set [3] (5 mM glutamate for 24 hours) stood at 90%. Further, the “% Cell survival” value in data set [3] (glutamate alone, 5 mM, 24 hours, Table 5) worked out at 7%. In addition, in data set [4] (2 mM glutamate for 24 hours, immature granular cerebellar cells), the cell death is 60+70%. In addition, in data set [4] (glutamate alone, 2 mM, 24 hours, Table 6), the “% Cellular survival” value is reported as 30%.
Turning to `CC(=O)Oc1c(C)c(C)c2c(c1C)CCC(C)(CCC[C@H](C)CCC[C@H](C)CCCC(C)C)O2` (stereo partly drawn) [Vit. E acetate, reference compound], the peroxidation inhibition was 0% in data set [1] (20 μM); 0% in data set [1] (50 μM); 0% in data set [2] (setting [7]); 0% in data set [2] (setting [9]); 1.90% in data set [2] (40 μM, preincubation time 0 minutes, ADP/NADPH/Fe, Table 2); 18.20% in data set [2] (40 μM, preincubation time 15 minutes, ADP/NADPH/Fe, Table 2). For the same molecule, the peroxidation inhibition worked out at 28.95% in data set [2] (40 μM, preincubation time 30 minutes, ADP/NADPH/Fe, Table 2); 35.80% in data set [2] (40 μM, preincubation time 45 minutes, ADP/NADPH/Fe, Table 2); 40.35% in data set [2] (40 μM, preincubation time 60 minutes, ADP/NADPH/Fe, Table 2). Also, the MDA in data set [1] (20 μM) turned out to be 14.29 nmoles/mg prot; in data set [1] (50 μM) it was 11.57 nmoles/mg prot; in data set [2] (setting [8]), 51.08 nmoles/mg prot; in data set [2] (setting [10]), 49.34 nmoles/mg prot. Further, the “inhibition of the peroxidation induced by NADPH/Fe+2/ADP (in words)” value in data set [2] (in vitro, 10 to 50 μM dose/effect relationship for the test compound) is “inactive in the in-vitro systems”.

The record behind these values is patent publication US5480645A, “Hydroxyamines N-acyl derivatives having scavenger activity and useful in acute and chronic pathologies associated with peroxidation and inflammation phenomena” (LifeGroup S.p.A., priority 1992, dated 1996).
